Numbered stars: 1 amine (or outer) side, 2 acyl side, 3 side chain; on linkers, the order of the positions; unused ones are H or OH. Square brackets hold non-standard residues; d marks the D form. Side chains are listed from the residue outwards. Peptide text beside a SMILES is read from it. * marks the point of attachment. C20 diacid = O=C(O)CCCCCCCCCCCCCCCCCCC(=O)*; γGlu = O=C(O)[C@H](CCC(=O)[*:2])N[*:1]; AEEA = NCCOCCOCC(=O)O; Aib = CC(C)(N)C(=O)O
Columns and labels:
[1] = Turbidity of crude library peptides (absorbance at 600 nm); assay type: physicochemical; conditions: Physical stability of peptides
Outline: (§1)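 Values reflect mean ThT emission (ex 450, em 480 nm) over 72 h at 40° C, read every 10 min after 5 min shaking at 700 rpm, plus a single initial absorbance at 600 nm for turbidity. Peptides were at 267 μM, pH 4.0 acetate or pH 7.0 phosphate (50 mM), with 4 μM ThT.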

[2] = Fibril formation of crude library peptides (Thioflavin T); assay type: physicochemical; set-up: key: average ThT fluorescence emission at 480 nm (ex 450 nm), raw units; conditions: Physical stability of peptides
Outline: as §1

[3] = target: SCTR (Homo sapiens, UniProt P47872); test: hSCTR potency, cAMP accumulation in CHO-K1 cells stably overexpressing hSCTR; assay type: cell-based; set-up: alternatively Euroscreen ES-712-AF; FAST-0161L; host or cells: CHO-K1; conditions: cAMP accumulation, CHO-K1 cells overexpressing hSCTR; read-out: pEC50 hSCTR (converted)
Outline: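 Potency reflects cAMP accumulation after 30 min agonist exposure at room temperature in hSCTR-expressing CHO-K1 cells, with 0.5 mM IBMX present to block phosphodiesterase. EC50 was derived by nonlinear regression.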

[4] = target: GLP1R (Homo sapiens, UniProt P43220); test: hGLP1R potency, cAMP accumulation in CHO-K1 cells stably overexpressing hGLP1R; assay type: cell-based; set-up: host or cells: CHO-K1; conditions: for Selectivity: SCTR EC50/GLP1R EC50 ratio; for EC50: cAMP accumulation, CHO-K1 cells overexpressing hGLP1R, read-out: pEC50 hGLPR1 (converted)
Outline: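 Potency reflects cAMP accumulation measured by time-resolved fluorescence energy transfer after a 30 min room-temperature stimulation in IBMX-containing (0.5 mM) DPBS with casein. Purified peptides were tested in duplicate over eleven threefold dilutions, and EC50 was obtained from sigmoid concentration-response fitting.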

Sequence of GLP1R (P43220 24-463): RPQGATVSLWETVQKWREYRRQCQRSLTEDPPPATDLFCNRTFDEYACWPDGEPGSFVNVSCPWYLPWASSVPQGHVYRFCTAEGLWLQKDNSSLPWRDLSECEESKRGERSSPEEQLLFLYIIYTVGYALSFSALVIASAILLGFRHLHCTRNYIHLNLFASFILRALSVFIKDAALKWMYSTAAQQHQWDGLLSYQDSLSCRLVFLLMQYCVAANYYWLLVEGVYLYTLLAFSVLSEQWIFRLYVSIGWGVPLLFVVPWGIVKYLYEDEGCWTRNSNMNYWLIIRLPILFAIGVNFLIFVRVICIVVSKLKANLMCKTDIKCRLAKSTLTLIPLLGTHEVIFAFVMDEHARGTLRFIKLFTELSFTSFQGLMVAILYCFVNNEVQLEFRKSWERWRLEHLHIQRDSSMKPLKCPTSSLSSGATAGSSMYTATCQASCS
Sequence of SCTR (P47872 23-440): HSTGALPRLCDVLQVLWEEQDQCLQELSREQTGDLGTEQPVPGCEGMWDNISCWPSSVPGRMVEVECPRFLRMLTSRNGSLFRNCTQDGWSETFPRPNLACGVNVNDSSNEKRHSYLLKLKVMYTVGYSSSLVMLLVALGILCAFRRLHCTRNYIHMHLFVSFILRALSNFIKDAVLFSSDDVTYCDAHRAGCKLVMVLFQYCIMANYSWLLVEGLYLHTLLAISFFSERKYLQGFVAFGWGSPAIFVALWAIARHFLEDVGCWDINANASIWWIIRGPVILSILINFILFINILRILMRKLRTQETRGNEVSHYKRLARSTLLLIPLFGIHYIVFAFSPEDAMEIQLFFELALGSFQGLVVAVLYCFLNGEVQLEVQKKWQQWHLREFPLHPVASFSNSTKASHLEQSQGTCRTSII

Turbidity (pH 7) [1]	Fibril formation [2]	EC50 [3]	Selectivity [4]	EC50 [4]	SMILES
0.08	11719	126 nM	2876	0.0398 nM	CC(C)C[C@H](NC(=O)[C@H](Cc1ccccc1)NC(=O)[C@H](CCCNC(=N)N)NC(=O)[C@H](CCC(N)=O)NC(=O)[C@H](CCC(=O)O)NC(=O)[C@H](C)NC(=O)[C@H](C)NC(=O)C(C)(C)NC(=O)[C@H](CCC(=O)O)NC(=O)[C@H](CCCCNC(=O)COCCOCCNC(=O)COCCOCCNC(=O)CC[C@H](NC(=O)CCCCCCCCCCCCCCCCCCC(=O)O)C(=O)O)NC(=O)[C@H](CC(C)C)NC(=O)[C@@H](NC(=O)[C@H](CO)NC(=O)[C@@H](NC(=O)[C@H](CC(=O)O)NC(=O)[C@H](CO)NC(=O)[C@@H](NC(=O)[C@H](Cc1ccccc1)NC(=O)[C@@H](NC(=O)CNC(=O)[C@H](CCC(=O)O)NC(=O)C(C)(C)NC(=O)[C@@H](N)Cc1c[nH]cn1)[C@@H](C)O)[C@@H](C)O)C(C)C)[C@@H](C)O)C(=O)N[C@@H](CCC(=O)O)C(=O)N[C@@H](Cc1c[nH]cn1)C(=O)N[C@@H](CC(C)C)C(=O)N[C@H](C(N)=O)C(C)C [compound 16] (H-H[Aib]EGTFTSDVSTLK([AEEA-AEEA-γGlu-C20 diacid])E[Aib]AAEQRFLEHLV-NH2)
0.08	10330	251 nM	10637	0.0251 nM	CC(C)C[C@H](NC(=O)[C@H](Cc1ccccc1)NC(=O)[C@H](CCCNC(=N)N)NC(=O)[C@H](CCC(N)=O)NC(=O)[C@H](CO)NC(=O)[C@H](C)NC(=O)[C@H](C)NC(=O)[C@H](CCC(=O)O)NC(=O)[C@H](CCC(=O)O)NC(=O)[C@H](CCCCNC(=O)COCCOCCNC(=O)COCCOCCNC(=O)CC[C@H](NC(=O)CCCCCCCCCCCCCCCCCCC(=O)O)C(=O)O)NC(=O)[C@H](CC(C)C)NC(=O)[C@H](CCCNC(=N)N)NC(=O)[C@H](CO)NC(=O)[C@@H](NC(=O)[C@H](CC(=O)O)NC(=O)[C@H](CO)NC(=O)[C@@H](NC(=O)[C@H](Cc1ccccc1)NC(=O)[C@@H](NC(=O)CNC(=O)[C@H](CCC(=O)O)NC(=O)C(C)(C)NC(=O)[C@@H](N)Cc1c[nH]cn1)[C@@H](C)O)[C@@H](C)O)C(C)C)C(=O)N[C@@H](CCC(=O)O)C(=O)N[C@@H](Cc1c[nH]cn1)C(=O)N[C@@H](CC(C)C)C(=O)N[C@H](C(N)=O)C(C)C [compound 17] (H-H[Aib]EGTFTSDVSRLK([AEEA-AEEA-γGlu-C20 diacid])EEAASQRFLEHLV-NH2)
0.09	12140	501 nM	16263	0.0316 nM	CC(C)C[C@H](NC(=O)[C@H](Cc1ccccc1)NC(=O)[C@H](CCCNC(=N)N)NC(=O)[C@H](CCC(N)=O)NC(=O)[C@H](CCC(=O)O)NC(=O)[C@H](C)NC(=O)[C@H](C)NC(=O)C(C)(C)NC(=O)[C@H](CCC(=O)O)NC(=O)[C@H](CCCCNC(=O)COCCOCCNC(=O)COCCOCCNC(=O)CC[C@H](NC(=O)CCCCCCCCCCCCCCCCCCC(=O)O)C(=O)O)NC(=O)[C@H](CC(C)C)NC(=O)[C@H](CCC(=O)O)NC(=O)[C@H](CO)NC(=O)[C@@H](NC(=O)[C@H](CC(=O)O)NC(=O)[C@H](CO)NC(=O)[C@@H](NC(=O)[C@H](Cc1ccccc1)NC(=O)[C@@H](NC(=O)CNC(=O)[C@H](CCC(=O)O)NC(=O)C(C)(C)NC(=O)[C@@H](N)Cc1c[nH]cn1)[C@@H](C)O)[C@@H](C)O)C(C)C)C(=O)N[C@@H](CCC(=O)O)C(=O)N[C@@H](Cc1c[nH]cn1)C(=O)N[C@@H](CC(C)C)C(=O)N[C@H](C(N)=O)C(C)C [compound 18] (H-H[Aib]EGTFTSDVSELK([AEEA-AEEA-γGlu-C20 diacid])E[Aib]AAEQRFLEHLV-NH2)
0.10	170210	631 nM	7342	0.0794 nM	CC(C)C[C@H](NC(=O)[C@H](CCC(=O)O)NC(=O)[C@H](CCCCNC(=O)COCCOCCNC(=O)COCCOCCNC(=O)CC[C@H](NC(=O)CCCCCCCCCCCCCCCCCCC(=O)O)C(=O)O)NC(=O)[C@H](CC(C)C)NC(=O)[C@H](CCCNC(=N)N)NC(=O)[C@H](CO)NC(=O)[C@@H](NC(=O)[C@H](CC(=O)O)NC(=O)[C@H](CO)NC(=O)[C@@H](NC(=O)[C@H](Cc1ccccc1)NC(=O)[C@@H](NC(=O)CNC(=O)[C@H](CCC(=O)O)NC(=O)C(C)(C)NC(=O)[C@@H](N)Cc1c[nH]cn1)[C@@H](C)O)[C@@H](C)O)C(C)C)C(=O)N[C@@H](C)C(=O)N[C@@H](C)C(=O)N[C@@H](CO)C(=O)N[C@@H](CCC(N)=O)C(=O)N[C@@H](CCCNC(=N)N)C(=O)N[C@@H](Cc1ccccc1)C(=O)N[C@@H](CC(C)C)C(=O)N[C@@H](CCC(=O)O)C(=O)N[C@@H](Cc1c[nH]cn1)C(=O)N[C@@H](CC(C)C)C(=O)N[C@H](C(N)=O)C(C)C [compound 19] (H-H[Aib]EGTFTSDVSRLK([AEEA-AEEA-γGlu-C20 diacid])ELAASQRFLEHLV-NH2)
0.10	33108	398 nM	22019	0.02 nM	CC(C)C[C@H](NC(=O)[C@H](Cc1ccccc1)NC(=O)[C@H](CCCNC(=N)N)NC(=O)[C@H](CCC(N)=O)NC(=O)[C@H](CO)NC(=O)[C@H](C)NC(=O)[C@H](C)NC(=O)[C@@H](NC(=O)[C@H](CCC(=O)O)NC(=O)[C@H](CCCCNC(=O)COCCOCCNC(=O)COCCOCCNC(=O)CC[C@H](NC(=O)CCCCCCCCCCCCCCCCCCC(=O)O)C(=O)O)NC(=O)[C@H](CC(C)C)NC(=O)[C@@H](NC(=O)[C@H](CO)NC(=O)[C@@H](NC(=O)[C@H](CC(=O)O)NC(=O)[C@H](CO)NC(=O)[C@@H](NC(=O)[C@H](Cc1ccccc1)NC(=O)[C@@H](NC(=O)CNC(=O)[C@H](CCC(=O)O)NC(=O)C(C)(C)NC(=O)[C@@H](N)Cc1c[nH]cn1)[C@@H](C)O)[C@@H](C)O)C(C)C)[C@@H](C)O)[C@@H](C)O)C(=O)N[C@@H](CCC(=O)O)C(=O)N[C@@H](Cc1c[nH]cn1)C(=O)N[C@@H](CC(C)C)C(=O)N[C@H](C(N)=O)C(C)C [compound 20] (H-H[Aib]EGTFTSDVSTLK([AEEA-AEEA-γGlu-C20 diacid])ETAASQRFLEHLV-NH2)
0.08	193729	200 nM	17906	0.0126 nM	CC(C)C[C@H](NC(=O)[C@H](Cc1ccccc1)NC(=O)[C@H](CCCNC(=N)N)NC(=O)[C@H](CCC(N)=O)NC(=O)[C@H](CCC(N)=O)NC(=O)[C@H](C)NC(=O)[C@H](C)NC(=O)[C@@H](NC(=O)[C@H](CCC(=O)O)NC(=O)[C@H](CCCCNC(=O)COCCOCCNC(=O)COCCOCCNC(=O)CC[C@H](NC(=O)CCCCCCCCCCCCCCCCCCC(=O)O)C(=O)O)NC(=O)[C@H](CC(C)C)NC(=O)[C@H](CCCNC(=N)N)NC(=O)[C@H](CO)NC(=O)[C@@H](NC(=O)[C@H](CC(=O)O)NC(=O)[C@H](CO)NC(=O)[C@@H](NC(=O)[C@H](Cc1ccccc1)NC(=O)[C@@H](NC(=O)CNC(=O)[C@H](CCC(=O)O)NC(=O)C(C)(C)NC(=O)[C@@H](N)Cc1c[nH]cn1)[C@@H](C)O)[C@@H](C)O)C(C)C)[C@@H](C)O)C(=O)N[C@@H](CCC(=O)O)C(=O)N[C@@H](Cc1c[nH]cn1)C(=O)N[C@@H](CC(C)C)C(=O)N[C@H](C(N)=O)C(C)C [compound 21] (H-H[Aib]EGTFTSDVSRLK([AEEA-AEEA-γGlu-C20 diacid])ETAAQQRFLEHLV-NH2)
0.08	16453	398 nM	20678	0.02 nM	CC(C)C[C@H](NC(=O)[C@H](Cc1ccccc1)NC(=O)[C@H](CCCNC(=N)N)NC(=O)[C@H](CCC(N)=O)NC(=O)[C@H](CCC(=O)O)NC(=O)[C@H](C)NC(=O)[C@H](C)NC(=O)[C@H](CCC(=O)O)NC(=O)[C@H](CCC(=O)O)NC(=O)[C@H](CCCCNC(=O)COCCOCCNC(=O)COCCOCCNC(=O)CC[C@H](NC(=O)CCCCCCCCCCCCCCCCCCC(=O)O)C(=O)O)NC(=O)[C@H](CC(C)C)NC(=O)[C@H](CCCNC(=N)N)NC(=O)[C@H](CO)NC(=O)[C@@H](NC(=O)[C@H](CC(=O)O)NC(=O)[C@H](CO)NC(=O)[C@@H](NC(=O)[C@H](Cc1ccccc1)NC(=O)[C@@H](NC(=O)CNC(=O)[C@H](CCC(=O)O)NC(=O)C(C)(C)NC(=O)[C@@H](N)Cc1c[nH]cn1)[C@@H](C)O)[C@@H](C)O)C(C)C)C(=O)N[C@@H](CCC(=O)O)C(=O)N[C@@H](Cc1c[nH]cn1)C(=O)N[C@@H](CC(C)C)C(=O)N[C@H](C(N)=O)C(C)C [compound 22] (H-H[Aib]EGTFTSDVSRLK([AEEA-AEEA-γGlu-C20 diacid])EEAAEQRFLEHLV-NH2)

Source: patent publication US20260201008A1, “SECRETIN-DERIVED GLP1R SELECTIVE AGONISTS” (GUBRA A/S, priority 2023, published 2026)
